From ChEMBL document CHEMBL1201862, “PubChem BioAssay data set” (2004)
Active and inactive are the calls of the source.

Columns and labels:
[1] = test system: Streptococcus sp. 'group A'; assay: growth inhibition of control SK(-) GAS strain, dose response, counter-screen for streptokinase expression inhibitor project, luminescence, kanamycin, BacTiterGlo, confirmation (AID 1900); format: functional, organism-based
Streptokinase A = biological target: T1, Streptokinase A (Streptococcus pyogenes serotype M1, UniProt P10520); assay: S. pyogenes streptokinase expression inhibitors, potency, dose response, plasminogen activation absorbance, OD405 (AID 1914); format: functional, Streptococcus pyogenes M1 GAS;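 also: secreted streptokinase activity via plasminogen activation per viability signal from cell pellet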
T1 sequence (P10520 whole entry): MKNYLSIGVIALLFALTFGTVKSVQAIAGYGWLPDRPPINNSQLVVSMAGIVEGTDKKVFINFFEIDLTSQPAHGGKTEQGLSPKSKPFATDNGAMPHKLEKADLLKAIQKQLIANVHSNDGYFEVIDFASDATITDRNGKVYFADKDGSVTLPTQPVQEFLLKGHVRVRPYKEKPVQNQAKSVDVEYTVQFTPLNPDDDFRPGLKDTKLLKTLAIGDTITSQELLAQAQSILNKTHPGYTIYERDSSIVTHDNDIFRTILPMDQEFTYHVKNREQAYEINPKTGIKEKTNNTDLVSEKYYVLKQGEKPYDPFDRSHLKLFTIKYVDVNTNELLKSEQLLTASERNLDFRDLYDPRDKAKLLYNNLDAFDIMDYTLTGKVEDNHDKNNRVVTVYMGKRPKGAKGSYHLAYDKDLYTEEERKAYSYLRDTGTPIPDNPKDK

[2] = cytotoxicity in HPDE-C7 cells, cell-based, fluorescence, HTS (AID 430); format: functional; details: Homo sapiens
[3] = cytotoxicity in KRAS-transformed pancreatic duct cells, primary screen, cell-based, fluorescence, HTS (AID 431); format: functional; details: Homo sapiens;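 also: cell line used: HPDE-C7K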
Streptococcus = assay: Group A Streptococcus viability loss, dose response, counter-screen for streptokinase expression inhibitor project, luminescence, BacTiterGlo (AID 1915); format: functional, organism-based;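 also: potency for reduction of bacterial viability or growth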
[4] = Luminescence Cell-Based Dose Retest to Confirm Inhibitors of Cancer Stem Cells. [Related pubchem assays (depositor defined):AID2717, AID2721]; format: functional, Homo sapiens; details: Homo sapiens
Aminopeptidase N = biological target: T2, Aminopeptidase N (Plasmodium falciparum FcB1/Columbia, UniProt O96935); assay: P. falciparum M1AAP inhibitors, biochemical, fluorogenic H-Leu-NHMec substrate, 1536-well (AID 1445); parameters: species or system Plasmodium falciparum 3D7, 3D7
T2 sequence (O96935 whole entry): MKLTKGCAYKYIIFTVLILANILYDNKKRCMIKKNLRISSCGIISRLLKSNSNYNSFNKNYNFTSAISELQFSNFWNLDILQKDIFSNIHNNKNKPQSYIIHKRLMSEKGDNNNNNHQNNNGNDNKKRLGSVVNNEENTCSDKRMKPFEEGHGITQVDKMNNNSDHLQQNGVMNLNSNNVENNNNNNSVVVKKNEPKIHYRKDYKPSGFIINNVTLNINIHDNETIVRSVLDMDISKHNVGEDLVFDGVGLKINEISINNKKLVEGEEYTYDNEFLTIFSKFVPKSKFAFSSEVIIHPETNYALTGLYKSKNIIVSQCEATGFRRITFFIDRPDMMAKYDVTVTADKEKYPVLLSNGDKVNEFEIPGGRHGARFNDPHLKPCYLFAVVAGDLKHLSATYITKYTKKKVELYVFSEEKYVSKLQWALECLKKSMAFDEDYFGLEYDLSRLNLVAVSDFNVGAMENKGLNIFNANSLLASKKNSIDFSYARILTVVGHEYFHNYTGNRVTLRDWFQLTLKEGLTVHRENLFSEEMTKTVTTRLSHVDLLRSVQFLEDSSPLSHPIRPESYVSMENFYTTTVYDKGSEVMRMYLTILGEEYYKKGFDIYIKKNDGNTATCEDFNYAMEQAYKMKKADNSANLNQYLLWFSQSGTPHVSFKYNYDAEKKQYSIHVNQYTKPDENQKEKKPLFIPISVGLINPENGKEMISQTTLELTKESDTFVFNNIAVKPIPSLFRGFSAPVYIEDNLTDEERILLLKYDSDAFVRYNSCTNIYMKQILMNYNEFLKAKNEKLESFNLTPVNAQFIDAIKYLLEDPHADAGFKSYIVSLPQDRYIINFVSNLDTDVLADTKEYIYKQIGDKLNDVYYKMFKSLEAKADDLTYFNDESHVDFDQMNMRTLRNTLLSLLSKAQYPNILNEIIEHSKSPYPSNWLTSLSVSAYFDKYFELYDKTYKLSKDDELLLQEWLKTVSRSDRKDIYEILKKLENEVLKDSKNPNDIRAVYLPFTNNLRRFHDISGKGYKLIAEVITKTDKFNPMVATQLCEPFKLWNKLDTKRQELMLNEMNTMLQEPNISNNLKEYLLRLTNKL

[5] = biological target: Peroxisome proliferator-activated receptor gamma/Nuclear receptor coactivator 2 (Homo sapiens, UniProt P37231); format: functional;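 also: agonist potency for raising coactivator recruitment to the receptor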
[6] = biological target: Peroxisome proliferator-activated receptor gamma/Nuclear receptor coactivator 1 (Homo sapiens, UniProt P37231); format: functional;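 also: agonist potency as compounds enhance coactivator SRC-1 recruitment to PPARgamma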
[7] = biological target: Peroxisome proliferator-activated receptor gamma/Nuclear receptor coactivator 3 (Homo sapiens, UniProt P37231); format: functional;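 also: agonist potency for raising coactivator recruitment to the receptor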
[8] = inhibitors of intracellular T. cruzi replication, confirmation, NIH3T3 host cells, beta-gal luminescence (AID 2044); format: functional, cell-based;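 also: intracellular parasites grown in NIH/3T3 mouse fibroblasts as host cells; luminescent beta-galactosidase reporter signal from transgenic T. cruzi replicating inside host cells; inhibitors lower the luminescence signal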
[9] = cytotoxicity toward NIH3T3 fibroblasts, dose response, counter-screen, cell-based, ATP luminescence, mouse fibroblasts (AID 2010); format: functional;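 also: cells exposed to compound for about 90 hours before reading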
[10] = inhibitors of Vif binding to APOBEC3G peptide, primary screen, biochemical, TR-FRET, GST-Vif 1-94, biotin-A3G peptide, dose response retest (AID 1117319); format: functional;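 also: TR-FRET signal of purified GST-Vif binding a biotinylated A3G peptide; inhibitors lower the FRET signal by blocking Vif and A3G binding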
H9c2 = assay: cells; format: functional, cell-based; details: Rattus norvegicus, H9c2, Myocardium;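 also: confirmatory concentration-response retest of ultra-high-throughput screening hits for modulation of myocardial damage; cell death induced by hydrogen peroxide oxidative stress; compound pretreatment for 60 min then peroxide exposure for 2 h; potency is for protecting the cells against peroxide damage rather than for killing them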
Fatty acid synthase [11] = biological target: T3, Fatty acid synthase (Homo sapiens, UniProt P49327); assay: FAS thioesterase domain inhibitors, dose response, biochemical, endpoint fluorescence intensity, uHTS hits (AID 624327); format: functional;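 also: fluorescence from hydrolysis of an O-methyl fluorescein acyl ester substrate by the enzyme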
Fatty acid synthase [12] = biological target: T3, Fatty acid synthase; assay: FAS thioesterase domain inhibitors, dose response, biochemical, kinetic fluorescence intensity (AID 624326); format: functional;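 also: rate of fluorescence rise from hydrolysis of a fluorogenic O-methyl fluorescein ester substrate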
[13] = biological target: T4, DNA repair protein RAD52 homolog (Homo sapiens, UniProt P43351); format: functional, biochemical
T4 sequence (P43351 whole entry): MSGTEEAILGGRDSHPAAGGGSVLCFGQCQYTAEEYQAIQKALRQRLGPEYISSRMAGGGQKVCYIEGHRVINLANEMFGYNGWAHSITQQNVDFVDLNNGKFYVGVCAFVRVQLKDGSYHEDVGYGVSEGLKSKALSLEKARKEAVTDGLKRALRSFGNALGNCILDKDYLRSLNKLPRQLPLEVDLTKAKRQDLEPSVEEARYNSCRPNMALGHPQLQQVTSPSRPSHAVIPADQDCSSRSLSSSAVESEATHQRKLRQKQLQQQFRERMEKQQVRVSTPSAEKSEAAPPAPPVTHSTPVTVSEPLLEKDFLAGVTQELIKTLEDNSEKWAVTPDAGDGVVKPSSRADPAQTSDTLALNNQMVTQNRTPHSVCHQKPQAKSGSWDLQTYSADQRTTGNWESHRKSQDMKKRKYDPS

Protein skinhead-1 = biological target: T5, Protein skinhead-1 (Caenorhabditis elegans, UniProt P34707); format: functional
T5 sequence (P34707 whole entry): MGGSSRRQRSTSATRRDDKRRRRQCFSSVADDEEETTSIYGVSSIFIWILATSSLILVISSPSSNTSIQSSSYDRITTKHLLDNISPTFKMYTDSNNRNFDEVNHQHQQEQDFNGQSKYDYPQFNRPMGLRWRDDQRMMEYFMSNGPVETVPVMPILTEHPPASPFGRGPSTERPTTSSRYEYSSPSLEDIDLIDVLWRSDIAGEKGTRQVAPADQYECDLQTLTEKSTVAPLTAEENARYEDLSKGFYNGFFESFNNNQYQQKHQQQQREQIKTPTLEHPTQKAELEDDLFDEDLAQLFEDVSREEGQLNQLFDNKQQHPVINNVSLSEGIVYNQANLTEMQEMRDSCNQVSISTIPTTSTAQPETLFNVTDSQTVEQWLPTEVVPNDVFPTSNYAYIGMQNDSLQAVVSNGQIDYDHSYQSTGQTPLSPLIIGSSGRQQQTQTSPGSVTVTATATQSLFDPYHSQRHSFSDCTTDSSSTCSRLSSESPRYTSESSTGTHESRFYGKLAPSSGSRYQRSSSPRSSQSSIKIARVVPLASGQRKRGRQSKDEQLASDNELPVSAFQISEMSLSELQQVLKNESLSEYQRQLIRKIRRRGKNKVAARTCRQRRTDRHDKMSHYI

[14] = inhibitors of clade B AD8 Env fusion, dose response, cell-based, cherry-pick (AID 652062); format: functional;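 also: luciferase signal from cell-cell fusion driven by HIV-1 clade B AD8 Env; potency is for inhibitors of fusion seen as a drop in luminescence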
[15] = biological target: T6, Calpain-2 catalytic subunit (Sus scrofa, UniProt P43367); assay: pig calpain II inhibitor potency, dose response, biochemical, fluorogenic peptide substrate (AID 1420); format: functional
T6 sequence (P43367 whole entry): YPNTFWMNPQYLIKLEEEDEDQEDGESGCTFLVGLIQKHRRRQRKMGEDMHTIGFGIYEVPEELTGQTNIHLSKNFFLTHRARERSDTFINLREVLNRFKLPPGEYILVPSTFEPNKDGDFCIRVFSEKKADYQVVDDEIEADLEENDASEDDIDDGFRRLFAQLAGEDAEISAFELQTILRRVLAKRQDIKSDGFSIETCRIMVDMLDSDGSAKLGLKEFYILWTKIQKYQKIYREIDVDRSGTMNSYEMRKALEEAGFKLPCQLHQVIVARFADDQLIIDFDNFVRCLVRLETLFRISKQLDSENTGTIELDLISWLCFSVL

Sequence of Peroxisome proliferator-activated receptor gamma/Nuclear receptor coactivator 1 (P37231 whole entry): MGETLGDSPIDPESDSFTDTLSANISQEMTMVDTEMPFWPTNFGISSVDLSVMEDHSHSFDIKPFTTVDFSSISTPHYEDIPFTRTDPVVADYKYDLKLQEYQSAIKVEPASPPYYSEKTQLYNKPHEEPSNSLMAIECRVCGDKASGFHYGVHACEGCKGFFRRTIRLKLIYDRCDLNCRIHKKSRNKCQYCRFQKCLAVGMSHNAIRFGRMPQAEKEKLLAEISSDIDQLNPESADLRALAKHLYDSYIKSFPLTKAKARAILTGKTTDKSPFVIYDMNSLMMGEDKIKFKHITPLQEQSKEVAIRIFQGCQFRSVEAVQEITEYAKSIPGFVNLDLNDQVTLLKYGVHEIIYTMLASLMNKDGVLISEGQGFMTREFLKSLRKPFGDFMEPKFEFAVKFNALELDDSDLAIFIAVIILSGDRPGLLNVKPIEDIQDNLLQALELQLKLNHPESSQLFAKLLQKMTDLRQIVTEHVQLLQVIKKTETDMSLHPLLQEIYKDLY
Sequence of Peroxisome proliferator-activated receptor gamma/Nuclear receptor coactivator 1 (Q15788 whole entry, further chain): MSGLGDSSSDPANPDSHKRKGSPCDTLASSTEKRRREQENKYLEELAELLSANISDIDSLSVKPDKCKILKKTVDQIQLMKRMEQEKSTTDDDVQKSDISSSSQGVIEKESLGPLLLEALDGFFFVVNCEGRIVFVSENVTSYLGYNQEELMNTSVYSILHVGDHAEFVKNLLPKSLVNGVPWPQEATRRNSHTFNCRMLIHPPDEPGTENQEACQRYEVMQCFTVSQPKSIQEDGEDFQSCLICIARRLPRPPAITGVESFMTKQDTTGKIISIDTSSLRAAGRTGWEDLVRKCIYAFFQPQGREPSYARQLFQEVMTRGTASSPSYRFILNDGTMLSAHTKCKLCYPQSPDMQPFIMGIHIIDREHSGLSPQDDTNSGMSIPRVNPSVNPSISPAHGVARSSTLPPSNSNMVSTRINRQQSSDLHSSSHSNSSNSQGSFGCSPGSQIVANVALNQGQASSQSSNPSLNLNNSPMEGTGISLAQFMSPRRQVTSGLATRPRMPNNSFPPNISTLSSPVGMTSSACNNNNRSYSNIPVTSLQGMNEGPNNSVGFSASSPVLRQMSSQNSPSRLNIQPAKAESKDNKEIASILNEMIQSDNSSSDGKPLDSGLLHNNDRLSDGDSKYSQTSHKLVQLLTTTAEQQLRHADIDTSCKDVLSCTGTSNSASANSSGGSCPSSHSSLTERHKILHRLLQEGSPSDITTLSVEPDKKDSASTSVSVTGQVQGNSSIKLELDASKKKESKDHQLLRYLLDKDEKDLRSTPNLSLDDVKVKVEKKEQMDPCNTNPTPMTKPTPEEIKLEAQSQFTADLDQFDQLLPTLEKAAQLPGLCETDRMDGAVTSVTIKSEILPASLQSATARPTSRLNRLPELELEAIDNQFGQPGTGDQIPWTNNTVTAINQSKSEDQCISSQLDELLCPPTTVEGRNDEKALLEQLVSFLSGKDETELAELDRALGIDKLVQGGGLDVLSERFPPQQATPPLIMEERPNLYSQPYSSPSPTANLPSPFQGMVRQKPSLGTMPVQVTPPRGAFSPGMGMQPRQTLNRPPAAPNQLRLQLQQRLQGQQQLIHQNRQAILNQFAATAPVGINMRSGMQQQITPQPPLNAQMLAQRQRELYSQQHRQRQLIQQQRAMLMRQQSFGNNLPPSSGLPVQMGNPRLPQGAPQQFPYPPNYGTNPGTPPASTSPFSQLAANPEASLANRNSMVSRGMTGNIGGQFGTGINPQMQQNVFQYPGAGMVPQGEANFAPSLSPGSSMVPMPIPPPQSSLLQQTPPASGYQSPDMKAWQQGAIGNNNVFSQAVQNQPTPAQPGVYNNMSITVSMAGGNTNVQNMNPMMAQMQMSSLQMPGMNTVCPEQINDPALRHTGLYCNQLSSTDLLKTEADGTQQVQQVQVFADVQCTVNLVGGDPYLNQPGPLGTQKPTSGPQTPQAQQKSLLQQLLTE
Sequence of Peroxisome proliferator-activated receptor gamma/Nuclear receptor coactivator 2 (P37231 whole entry): as the sequence (P37231 whole entry) above
Sequence of Peroxisome proliferator-activated receptor gamma/Nuclear receptor coactivator 2 (Q15596 whole entry, further chain): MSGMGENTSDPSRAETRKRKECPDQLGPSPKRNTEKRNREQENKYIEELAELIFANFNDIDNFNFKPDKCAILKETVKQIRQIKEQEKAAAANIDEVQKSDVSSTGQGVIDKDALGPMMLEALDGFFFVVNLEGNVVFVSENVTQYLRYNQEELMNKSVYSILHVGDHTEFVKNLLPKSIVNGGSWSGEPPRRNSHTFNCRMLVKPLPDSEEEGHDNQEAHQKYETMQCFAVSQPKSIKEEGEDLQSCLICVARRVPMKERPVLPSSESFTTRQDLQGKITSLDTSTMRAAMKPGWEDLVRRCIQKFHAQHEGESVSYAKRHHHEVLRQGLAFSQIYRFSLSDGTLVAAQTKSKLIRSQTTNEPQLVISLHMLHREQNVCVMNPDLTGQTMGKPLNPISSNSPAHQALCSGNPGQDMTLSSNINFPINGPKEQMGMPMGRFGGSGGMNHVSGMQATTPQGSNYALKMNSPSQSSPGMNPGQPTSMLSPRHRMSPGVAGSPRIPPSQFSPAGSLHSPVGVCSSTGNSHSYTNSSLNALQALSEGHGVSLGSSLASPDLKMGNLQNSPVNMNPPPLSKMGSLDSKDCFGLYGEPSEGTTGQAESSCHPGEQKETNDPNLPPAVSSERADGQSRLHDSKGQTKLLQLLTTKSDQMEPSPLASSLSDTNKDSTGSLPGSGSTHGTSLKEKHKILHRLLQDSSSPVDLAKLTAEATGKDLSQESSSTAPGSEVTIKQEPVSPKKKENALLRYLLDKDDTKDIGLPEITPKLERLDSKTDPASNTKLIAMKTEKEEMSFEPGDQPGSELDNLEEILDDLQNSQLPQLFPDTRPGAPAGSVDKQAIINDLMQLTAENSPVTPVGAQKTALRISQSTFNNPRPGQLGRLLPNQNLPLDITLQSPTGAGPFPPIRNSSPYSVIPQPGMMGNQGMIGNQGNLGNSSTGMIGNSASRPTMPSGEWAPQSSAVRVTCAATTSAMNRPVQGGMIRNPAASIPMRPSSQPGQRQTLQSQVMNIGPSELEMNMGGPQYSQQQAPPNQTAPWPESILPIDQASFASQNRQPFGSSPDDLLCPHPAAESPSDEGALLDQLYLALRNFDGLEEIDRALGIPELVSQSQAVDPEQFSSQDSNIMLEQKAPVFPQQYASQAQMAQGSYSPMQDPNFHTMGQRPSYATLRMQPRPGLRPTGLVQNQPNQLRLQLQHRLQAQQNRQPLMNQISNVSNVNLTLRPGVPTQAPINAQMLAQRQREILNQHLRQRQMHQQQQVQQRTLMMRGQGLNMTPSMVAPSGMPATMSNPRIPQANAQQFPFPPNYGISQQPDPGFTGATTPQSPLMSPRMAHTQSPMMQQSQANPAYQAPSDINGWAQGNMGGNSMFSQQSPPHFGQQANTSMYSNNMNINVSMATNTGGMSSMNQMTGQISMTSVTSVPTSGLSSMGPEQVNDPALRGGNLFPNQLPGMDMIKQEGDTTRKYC

For `Cc1cccc(N2CCN(C(=O)c3cc4n(n3)C(C(F)(F)F)CC(c3ccco3)N4)CC2)c1C` (configuration not stated), the EC50 [1] was 3.02 µM (active), the EC50 (Streptokinase A) was 16.7 µM (active) and the EC50 [2] was > 20 µM (not active). The EC50 [3] was > 20 µM (not active), the EC50 (Streptococcus) was 29.1 µM (active) and the AC50 [4] was 1.84 µM (active).

With `C=CCN1C(=O)/C(=c2\sc3nc(=O)c(Cc4ccccc4Cl)nn3c2=O)c2ccccc21` the IC50 (Aminopeptidase N) was 57.4 µM (active).

In the case of `O=C(Nc1nc(-c2ccc(S(=O)(=O)N3CCCCCC3)cc2)cs1)c1cccs1`, the EC50 [5] is reported as 14.6 µM (not active), the EC50 [6] is reported as 16.5 µM (not active) and the EC50 [7] is reported as 17.4 µM (not active). For the same compound, the EC50 [8] was 2.33 µM (active) and the EC50 [9] was 6.61 µM (active).

With `CCC1CCC2(CC1)NC(=O)N(CC(=O)Nc1ccc(OC)c(Cl)c1)C2=O` (configuration not stated) the IC50 [10] was > 100 µM (active).

In the case of `Cc1ccc2c(c1)c1nnc(SCC(=O)Nc3cccc(Cl)c3C)nc1n2CC(=O)O`, the IC50 (Aminopeptidase N) is reported as 8.42 µM (active).

In the case of `Cc1ccc2nsnc2c1S(=O)(=O)N(Cc1ccco1)Cc1cc2cccc(C)c2nc1O`, the IC50 (H9c2) is reported as > 79 µM (inactive) and the IC50 [10] is reported as > 100 µM (active).

For `CN(C)CCCNC(=O)C[C@H]1C[C@H](C(=O)N2CCOCC2)[C@@]2(CCC3CCCC3)c3[nH]c4cc(-c5ccco5)ccc4c3CCN2C1=O`, the IC50 (Fatty acid synthase [11]) was 5.74 µM (active), the IC50 (Fatty acid synthase [12]) was 5.89 µM (active) and the AC50 [13] was 11.2 µM (active).

For `CC(OC(=O)c1ccc([N+](=O)[O-])o1)C(=O)NC1CCCCC1C` (configuration not stated), the IC50 [10] was > 100 µM (active).

In the case of `CCOC(=O)c1c(C)[nH]c(C)c1C(=O)COC(=O)c1cccc(S(=O)(=O)NC)c1`, the IC50 [10] is reported as > 100 µM (active).

With `CCN1CCN(Cc2ccc(NC(=O)c3ccc(C)c(NC(=O)c4csc(-c5ccncc5)n4)c3)cc2C(F)(F)F)CC1` the AC50 [13] was 33.6 µM (active).

With `c1ccc(CN2CCN(c3nc(-c4ccccc4)nc(-n4ccnc4)n3)CC2)cc1` the EC50 [2] was 9.94 µM (active), the EC50 [8] was 2.31 µM (active) and the EC50 [3] was 11.9 µM (active). The EC50 [9] was > 60 µM (not active).

For `Nc1c(C(=O)NCCc2ccccc2)c2nc3ccccc3nc2n1CCN1CCOCC1`, the EC50 [2] was 9.43 µM (active) and the EC50 [3] was 10.4 µM (active).

In the case of `CC1(C)OC2OC(C(=O)N/N=C/c3cc(Br)ccc3O)C3OC(C)(C)OC3C2O1` (configuration not stated), the IC50 (Aminopeptidase N) is reported as 51.7 µM (active).

For `CCCCCCn1c(N2CCN(c3cccc(Cl)c3)CC2)nc2c1c(=O)[nH]c(=O)n2C`, the EC50 [2] was > 20 µM (not active), the EC50 [3] was > 20 µM (not active) and the IC50 (Protein skinhead-1) was > 100 µM (inactive).

For `O=C(CCC1CCCN(C(=O)C2=CCCCC2)C1)N1CCN(c2ccccn2)CC1` (configuration not stated), the EC50 [5] was > 79.4 µM (not active), the EC50 [6] was > 79.4 µM (not active) and the EC50 [7] was > 79.4 µM (not active).

In the case of `O=C(COc1ccc(-n2cnnn2)cc1)Nc1ccc(F)c(F)c1`, the AC50 [14] is reported as 1.42 µM (active).

With `Cc1ccc(NC(=O)CN(C)C(=S)NC2CC2)cc1` the EC50 [5] was > 79.4 µM (not active), the EC50 [6] was > 79.4 µM (not active) and the EC50 [7] was > 79.4 µM (not active).

With `COc1cccc(C2=NC(C)(C)NC(c3ccccc3O)C2)c1` (configuration not stated) the EC50 [2] was 11.7 µM (active) and the EC50 [3] was 12.5 µM (active).

With `Clc1ccc(-c2nnnn2-c2ccc(Cl)c(Cl)c2)cc1Cl` the EC50 [1] was 9.57 µM (active), the EC50 (Streptokinase A) was 8.28 µM (active) and the IC50 [15] was < 0.4 µM (not active). For the same compound, the EC50 (Streptococcus) was > 150 µM (not active), the AC50 [4] was 3.97 µM (active) and the IC50 [10] was > 100 µM (active).

In the case of `O=C(CSc1ncnc2c1nnn2-c1ccc(F)cc1)NCc1ccco1`, the EC50 [5] is reported as > 79.4 µM (not active), the EC50 [6] is reported as > 79.4 µM (not active) and the EC50 [7] is reported as > 79.4 µM (not active).

In the case of `O=C1Nc2cc(Cl)ccc2C1(N1CCNCC1)C(F)(F)F` (configuration not stated), the EC50 [2] is reported as > 20 µM (not active) and the EC50 [3] is reported as > 20 µM (not active).
